# Columns and labels:
# Human μ-opioid (MOP) = target: T1, Human μ-opioid (MOP) (Homo sapiens, UniProt P35372); assay: Radioligand binding, human μ-opioid (MOP) membranes, FlashPlate, [3H]-Naloxone; details: compound at 10 μM, [3H]-Naloxone; for A7: inhibition of radioligand binding: human MOP membranes
# T1 construct: purchased Perkin Elmer Biosignal
# How it was run: (§1)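 Cloned human receptor membranes were coated onto FlashPlate wells and incubated with radioligand and compound (added from a 0.5 mM DMSO daughter plate) for 1 hour at room temperature in the dark. Scintillation counting gave percent inhibition, with DMSO defining total and reference ligand defining non-specific binding.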
# Mouse urotensin (mUR2) = target: T2, Mouse urotensin (mUR2) (Mus musculus, UniProt Q8VIH9); assay: Radioligand binding, mouse urotensin mUR2 membranes, FlashPlate, [125I]-Urotensin II; details: compound at 10 μM, [125I]-Urotensin II; for A11: inhibition of radioligand binding: mouse mUR2 membranes
# T2 construct: purchased Perkin Elmer Biosignal
# T2 sequence (Q8VIH9 1-385): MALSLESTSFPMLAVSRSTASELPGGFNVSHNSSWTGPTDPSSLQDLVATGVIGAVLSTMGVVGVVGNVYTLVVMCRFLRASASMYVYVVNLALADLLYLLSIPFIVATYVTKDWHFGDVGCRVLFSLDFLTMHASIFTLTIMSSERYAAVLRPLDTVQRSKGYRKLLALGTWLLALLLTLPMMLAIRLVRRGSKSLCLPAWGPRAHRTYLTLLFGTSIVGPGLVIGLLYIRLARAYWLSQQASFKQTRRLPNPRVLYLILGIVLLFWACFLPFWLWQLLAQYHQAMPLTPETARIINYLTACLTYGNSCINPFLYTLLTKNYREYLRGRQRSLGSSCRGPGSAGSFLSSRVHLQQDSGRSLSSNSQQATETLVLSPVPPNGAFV
# How it was run: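 Cloned mouse urotensin (mUR2) receptor membranes from Perkin Elmer Biosignal were immobilized in FlashPlate microplates using a proprietary coating. Each well got 19.5 μl buffer, then 0.5 μl of DMSO, reference ligand, or compound. Adding 5 μl of [125I]-Urotensin II, diluted to 5× final concentration in binding buffer, started binding. Plates were sealed with TopSeal-A and incubated 1 hour at room temperature in the dark. Wells were counted for 30 seconds each on a TopCount after a 60-second delay, and percentage inhibition was calculated.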
# [1] = target: T3, Human neuropeptide Y (NPY-Y1) (Homo sapiens, UniProt P25929); assay: Radioligand binding, human neuropeptide Y NPY-Y1 membranes, FlashPlate, [125I]-PYY; details: compound at 10 μM, [125I]-PYY; for A9: inhibition of radioligand binding: human NPY-Y1 membranes
# T3 construct: purchased Perkin Elmer Biosignal
# T3 sequence (P25929 1-384): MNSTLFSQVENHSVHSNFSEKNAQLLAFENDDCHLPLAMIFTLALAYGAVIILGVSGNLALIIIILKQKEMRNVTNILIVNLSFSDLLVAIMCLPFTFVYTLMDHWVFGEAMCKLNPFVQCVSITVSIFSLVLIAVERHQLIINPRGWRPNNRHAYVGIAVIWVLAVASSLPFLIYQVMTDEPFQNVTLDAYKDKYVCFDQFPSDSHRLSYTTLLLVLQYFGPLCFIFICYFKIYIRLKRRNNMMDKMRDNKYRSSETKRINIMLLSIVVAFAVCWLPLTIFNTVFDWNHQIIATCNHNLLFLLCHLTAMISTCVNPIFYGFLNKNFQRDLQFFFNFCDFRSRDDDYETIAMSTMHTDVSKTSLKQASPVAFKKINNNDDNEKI
# How it was run: as §1
# Human opioid (ORL1) = target: T4, Human opioid (ORL1) (Homo sapiens, UniProt P41146); assay: Radioligand binding, human opioid ORL1 membranes, FlashPlate, [125I]-Nociceptin; details: compound at 10 μM, [125I]-Nociceptin; for A10: inhibition of radioligand binding: human ORL1 membranes
# T4 construct: purchased Perkin Elmer Biosignal
# How it was run: as §1
# Human Melanocortin (MC4) = target: T5, Human Melanocortin (MC4) (Homo sapiens, UniProt P32245); assay: Radioligand binding, human melanocortin MC4 membranes, FlashPlate, [125I]-NDP-αMSH; details: compound at 10 μM, [125I]-NDP-αMSH; for A4: inhibition of radioligand binding: human MC4 membranes
# T5 construct: purchased Perkin Elmer Biosignal
# How it was run: as §1
# [2] = target: T6, Human melanin-concentrating hormone (MCH1) (Homo sapiens, UniProt Q99705); assay: Radioligand binding, human melanin-concentrating hormone MCH1 membranes, FlashPlate, [125I]-S36057; details: compound at 10 μM; for A6: inhibition of radioligand binding: [125I]-S36057, human MCH1 membranes
# T6 construct: purchased Perkin Elmer Biosignal
# How it was run: as §1
# Human melanocortin (MC5) = target: T7, Human melanocortin (MC5) (Homo sapiens, UniProt P33032); assay: Radioligand binding, human melanocortin MC5 membranes, FlashPlate, [125I]-NDP-αMSH; details: compound at 10 μM, [125I]-NDP-αMSH; for A5: inhibition of radioligand binding: human MC5 membranes
# T7 construct: purchased Perkin Elmer Biosignal
# How it was run: as §1
# Human δ-opioid (DOP) = target: T8, Human δ-opioid (DOP) (Homo sapiens, UniProt P41143); assay: Radioligand binding, human δ-opioid (DOP) membranes, FlashPlate, [3H]-Bremazocine; details: compound at 10 μM, [3H]-Bremazocine; for A1: inhibition of radioligand binding: human DOP membranes
# T8 construct: purchased Perkin Elmer Biosignal
# How it was run: as §1
# Human neurokinin (NK1) = target: T9, Human neurokinin (NK1) (Homo sapiens, UniProt P25103); assay: Radioligand binding, human neurokinin NK1 membranes, filtration, [125I]-Substance P; details: compound at 10 μM, [125I]-Substance P; for A8: inhibition of radioligand binding: human NK1 membranes
# T9 construct: purchased Perkin Elmer Biosignal
# How it was run: (§2)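 Percent inhibition of radioligand binding measured on recombinant human membranes: NK1 with [125I]-Substance P, KOP with [3H]-Diprenorphine. Incubation 1 h at room temperature, then harvest onto 0.3% PEI-soaked filters, cold Tris-HCl pH 7.4 washes and scintillation counting; non-specific binding from reference ligand wells.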
# Human κ-Opioid (KOP) = target: T10, Human κ-Opioid (KOP) (Homo sapiens, UniProt P41145); assay: Radioligand binding, human κ-opioid (KOP) membranes, filtration, [3H]-Diprenorphine; details: compound at 10 μM, [3H]-Diprenorphine; for A2: inhibition of radioligand binding: human KOP membranes
# T10 construct: purchased Perkin Elmer Biosignal
# How it was run: as §2
# Human Melanocortin (MC3) = target: T11, Human Melanocortin (MC3) (Homo sapiens, UniProt P41968); assay: Radioligand binding, human melanocortin MC3 membranes, FlashPlate, [125I]-NDP-αMSH; details: compound at 10 μM, [125I]-NDP-αMSH; for A3: inhibition of radioligand binding: human MC3 membranes
# T11 construct: purchased Perkin Elmer Biosignal
# How it was run: as §1
# T10 sequence (P41145 whole entry): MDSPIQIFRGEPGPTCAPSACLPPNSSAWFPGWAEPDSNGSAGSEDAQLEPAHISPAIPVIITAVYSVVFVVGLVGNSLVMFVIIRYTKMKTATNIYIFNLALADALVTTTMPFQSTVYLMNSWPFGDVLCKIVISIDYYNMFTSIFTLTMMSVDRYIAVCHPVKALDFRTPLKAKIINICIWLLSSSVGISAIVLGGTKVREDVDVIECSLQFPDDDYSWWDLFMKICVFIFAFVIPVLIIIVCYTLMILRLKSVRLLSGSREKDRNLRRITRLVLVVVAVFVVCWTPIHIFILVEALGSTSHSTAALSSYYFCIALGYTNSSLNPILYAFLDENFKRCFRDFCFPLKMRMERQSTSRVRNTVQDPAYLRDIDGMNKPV
# T11 sequence (P41968 whole entry): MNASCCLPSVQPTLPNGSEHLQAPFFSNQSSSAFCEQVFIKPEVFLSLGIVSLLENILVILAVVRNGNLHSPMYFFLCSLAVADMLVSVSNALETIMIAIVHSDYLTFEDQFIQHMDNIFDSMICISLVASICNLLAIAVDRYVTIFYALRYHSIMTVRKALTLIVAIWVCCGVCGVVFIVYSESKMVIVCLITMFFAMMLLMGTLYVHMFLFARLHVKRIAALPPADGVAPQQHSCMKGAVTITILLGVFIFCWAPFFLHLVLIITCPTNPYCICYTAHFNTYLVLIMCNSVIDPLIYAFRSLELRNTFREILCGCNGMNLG
# T7 sequence (P33032 whole entry): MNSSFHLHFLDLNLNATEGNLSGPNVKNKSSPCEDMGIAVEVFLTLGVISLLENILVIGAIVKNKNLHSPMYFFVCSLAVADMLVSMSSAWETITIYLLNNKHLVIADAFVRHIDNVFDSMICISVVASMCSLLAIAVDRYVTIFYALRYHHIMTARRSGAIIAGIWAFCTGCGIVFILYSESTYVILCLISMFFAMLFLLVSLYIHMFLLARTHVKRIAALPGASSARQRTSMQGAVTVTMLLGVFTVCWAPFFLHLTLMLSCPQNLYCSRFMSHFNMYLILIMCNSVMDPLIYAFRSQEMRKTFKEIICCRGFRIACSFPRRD
# T6 sequence (Q99705 whole entry): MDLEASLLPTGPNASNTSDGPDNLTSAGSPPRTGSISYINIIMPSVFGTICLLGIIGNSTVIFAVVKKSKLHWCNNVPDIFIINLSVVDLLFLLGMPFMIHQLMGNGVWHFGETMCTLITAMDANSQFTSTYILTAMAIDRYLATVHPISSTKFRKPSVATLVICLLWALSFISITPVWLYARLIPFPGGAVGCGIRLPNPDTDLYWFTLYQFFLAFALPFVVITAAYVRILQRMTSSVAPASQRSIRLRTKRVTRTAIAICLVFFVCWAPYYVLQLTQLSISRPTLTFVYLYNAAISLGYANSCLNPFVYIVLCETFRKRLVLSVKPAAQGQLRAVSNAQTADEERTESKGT
# T5 sequence (P32245 whole entry): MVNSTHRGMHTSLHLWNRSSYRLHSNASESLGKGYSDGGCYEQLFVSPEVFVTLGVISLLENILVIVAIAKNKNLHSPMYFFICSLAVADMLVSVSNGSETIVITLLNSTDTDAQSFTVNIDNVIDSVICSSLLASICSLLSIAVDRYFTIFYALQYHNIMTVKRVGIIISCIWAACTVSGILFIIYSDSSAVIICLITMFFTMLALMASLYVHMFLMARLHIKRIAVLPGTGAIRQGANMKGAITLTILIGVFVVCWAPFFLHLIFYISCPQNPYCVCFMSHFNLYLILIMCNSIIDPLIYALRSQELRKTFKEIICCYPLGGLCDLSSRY
# T9 sequence (P25103 whole entry): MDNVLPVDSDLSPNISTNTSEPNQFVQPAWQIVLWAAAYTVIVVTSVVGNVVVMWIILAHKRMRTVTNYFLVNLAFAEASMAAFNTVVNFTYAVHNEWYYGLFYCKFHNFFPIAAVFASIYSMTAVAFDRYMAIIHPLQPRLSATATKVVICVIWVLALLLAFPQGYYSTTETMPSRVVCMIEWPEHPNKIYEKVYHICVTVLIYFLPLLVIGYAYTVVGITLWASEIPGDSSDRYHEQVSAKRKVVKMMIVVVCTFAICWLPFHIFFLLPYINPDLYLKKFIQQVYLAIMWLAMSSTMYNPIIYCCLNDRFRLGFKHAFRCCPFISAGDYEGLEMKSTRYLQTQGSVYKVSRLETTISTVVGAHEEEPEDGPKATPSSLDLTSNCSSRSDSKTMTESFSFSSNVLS
# T1 sequence (P35372 whole entry): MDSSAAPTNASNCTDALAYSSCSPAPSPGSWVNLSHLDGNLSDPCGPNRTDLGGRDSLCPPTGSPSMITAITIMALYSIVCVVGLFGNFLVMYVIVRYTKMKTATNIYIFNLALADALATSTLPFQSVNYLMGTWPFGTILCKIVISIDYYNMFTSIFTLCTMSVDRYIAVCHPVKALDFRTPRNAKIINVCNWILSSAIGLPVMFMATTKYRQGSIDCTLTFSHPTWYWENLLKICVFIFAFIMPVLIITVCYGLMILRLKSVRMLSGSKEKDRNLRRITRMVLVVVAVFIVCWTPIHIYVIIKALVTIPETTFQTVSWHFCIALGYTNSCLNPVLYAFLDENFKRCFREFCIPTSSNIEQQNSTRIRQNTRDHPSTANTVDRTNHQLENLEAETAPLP
# T4 sequence (P41146 whole entry): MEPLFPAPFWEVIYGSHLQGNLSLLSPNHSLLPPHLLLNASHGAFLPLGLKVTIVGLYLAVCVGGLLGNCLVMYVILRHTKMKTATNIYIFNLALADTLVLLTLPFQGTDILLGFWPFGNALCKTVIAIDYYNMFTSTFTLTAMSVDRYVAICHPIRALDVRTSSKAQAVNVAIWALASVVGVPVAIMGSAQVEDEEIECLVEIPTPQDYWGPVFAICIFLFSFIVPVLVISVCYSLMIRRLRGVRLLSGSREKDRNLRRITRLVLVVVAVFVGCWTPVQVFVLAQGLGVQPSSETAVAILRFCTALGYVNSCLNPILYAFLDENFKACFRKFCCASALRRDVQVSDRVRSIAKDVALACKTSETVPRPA
# T8 sequence (P41143 whole entry): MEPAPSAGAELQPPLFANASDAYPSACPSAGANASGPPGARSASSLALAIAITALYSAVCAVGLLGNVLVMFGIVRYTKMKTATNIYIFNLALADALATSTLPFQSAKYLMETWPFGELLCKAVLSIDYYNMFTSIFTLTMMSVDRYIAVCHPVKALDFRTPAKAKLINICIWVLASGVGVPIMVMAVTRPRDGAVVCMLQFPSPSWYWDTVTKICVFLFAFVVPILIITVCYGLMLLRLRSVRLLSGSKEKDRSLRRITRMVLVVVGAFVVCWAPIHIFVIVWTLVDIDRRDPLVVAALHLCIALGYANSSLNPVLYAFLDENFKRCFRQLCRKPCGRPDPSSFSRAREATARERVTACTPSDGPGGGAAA
smiles,measurement,setting,value
"NCCC(=O)NC1C(OCc2ccc(Cl)cc2)OC(COCc2ccccc2)C(O)C1OCc1ccc(Cl)cc1 (single isomer, unassigned) [compound 474]",A7: inhibition of radioligand binding,Human μ-opioid (MOP); 10 µM,− (“−” indicates less than 50% inhibition at 10 μM)
same,A11: inhibition of radioligand binding,Mouse urotensin (mUR2),− (“−” indicates less than 50% inhibition at 10 μM)
same,A9: inhibition of radioligand binding,[1],− (“−” indicates less than 50% inhibition at 10 μM)
same,A10: inhibition of radioligand binding,Human opioid (ORL1); 10 µM,+ (“+” indicates greater than 50% inhibition at 10 μM)
same,A4: inhibition of radioligand binding,Human Melanocortin (MC4),− (“−” indicates less than 50% inhibition at 10 μM)
same,A6: inhibition of radioligand binding,[2]; 10 µM,− (“−” indicates less than 50% inhibition at 10 μM)
same,A5: inhibition of radioligand binding,Human melanocortin (MC5); 10 µM,− (“−” indicates less than 50% inhibition at 10 μM)
same,A1: inhibition of radioligand binding,Human δ-opioid (DOP),− (“−” indicates less than 50% inhibition at 10 μM)
same,A8: inhibition of radioligand binding,Human neurokinin (NK1),+ (“+” indicates greater than 50% inhibition at 10 μM)
same,A2: inhibition of radioligand binding,Human κ-Opioid (KOP),− (“−” indicates less than 50% inhibition at 10 μM)
same,A3: inhibition of radioligand binding,Human Melanocortin (MC3),− (“−” indicates less than 50% inhibition at 10 μM)
CO[C@H]1[C@H](O)[C@@H](COCc2ccc3ccccc3c2)OC(OCc2ccc(Cl)cc2)[C@@H]1NC(=O)CCCN (stereo partly drawn) [compound 99],"A7 radioligand binding, percentage inhibition",Human μ-opioid (MOP),− (“−” indicates less than 50% inhibition at 10 μM)
same,"A11 radioligand binding, percentage inhibition",Mouse urotensin (mUR2),− (“−” indicates less than 50% inhibition at 10 μM)
same,"A9 radioligand binding, percentage inhibition",[1],− (“−” indicates less than 50% inhibition at 10 μM)
same,"A10 radioligand binding, percentage inhibition",Human opioid (ORL1),− (“−” indicates less than 50% inhibition at 10 μM)
same,"A4 radioligand binding, percentage inhibition",Human Melanocortin (MC4),+ (“+” indicates greater than 50% inhibition at 10 μM)
same,"A6 radioligand binding, percentage inhibition",[2]; [125I]-S36057,− (“−” indicates less than 50% inhibition at 10 μM)
same,"A5 radioligand binding, percentage inhibition",Human melanocortin (MC5),+ (“+” indicates greater than 50% inhibition at 10 μM)
same,"A1 radioligand binding, percentage inhibition",Human δ-opioid (DOP),− (“−” indicates less than 50% inhibition at 10 μM)
same,"A8 radioligand binding, percentage inhibition",Human neurokinin (NK1),+ (“+” indicates greater than 50% inhibition at 10 μM)
same,"A2 radioligand binding, percentage inhibition",Human κ-Opioid (KOP),− (“−” indicates less than 50% inhibition at 10 μM)
same,"A3 radioligand binding, percentage inhibition",Human Melanocortin (MC3),− (“−” indicates less than 50% inhibition at 10 μM)
N=C(N)NCCC(=O)NC1C(OCc2ccc(-c3ccccc3)cc2)OC(COCc2ccccc2)C(O)C1OCc1ccc2ccccc2c1 (stereo not drawn) [compound 412],A7: inhibition of radioligand binding,Human μ-opioid (MOP),− (“−” indicates less than 50% inhibition at 10 μM)
same,A11: inhibition of radioligand binding,Mouse urotensin (mUR2),− (“−” indicates less than 50% inhibition at 10 μM)
same,A9: inhibition of radioligand binding,[1],− (“−” indicates less than 50% inhibition at 10 μM)
same,A10: inhibition of radioligand binding,Human opioid (ORL1),+ (“+” indicates greater than 50% inhibition at 10 μM)
same,A4: inhibition of radioligand binding,Human Melanocortin (MC4),+ (“+” indicates greater than 50% inhibition at 10 μM)
same,A6: inhibition of radioligand binding,[2],+ (“+” indicates greater than 50% inhibition at 10 μM)
same,A5: inhibition of radioligand binding,Human melanocortin (MC5),+ (“+” indicates greater than 50% inhibition at 10 μM)
same,A1: inhibition of radioligand binding,Human δ-opioid (DOP),− (“−” indicates less than 50% inhibition at 10 μM)
same,A8: inhibition of radioligand binding,Human neurokinin (NK1),+ (“+” indicates greater than 50% inhibition at 10 μM)
same,A2: inhibition of radioligand binding,Human κ-Opioid (KOP),− (“−” indicates less than 50% inhibition at 10 μM)
same,A3: inhibition of radioligand binding,Human Melanocortin (MC3),+ (“+” indicates greater than 50% inhibition at 10 μM)

# — US20080009418A1, “Selective Inhibitors” (Alchemia LTD., priority 2004, published 2008)
